# Laboratory results: patent US11773078B2, “Furin inhibitors” (Glaxosmithkline Intellectual Property Development Limited, priority 2018, dated 2023)
# Where a name gives a salt, the structure may show the parent alone.
# Legend:
# [1] = target: T1, Furin (108-574-Tev-Flag-His) enzyme (Homo sapiens, UniProt P09958); assay: Furin enzyme assay; format: biochemical
# T1 construct: Furin (108-574-Tev-Flag-His) enzyme was expressed and purified from CHO cells; TEV cleavage site (C); FLAG (C); His (C); made in house; host or cells: CHO cells
# T1 sequence (P09958 108-574): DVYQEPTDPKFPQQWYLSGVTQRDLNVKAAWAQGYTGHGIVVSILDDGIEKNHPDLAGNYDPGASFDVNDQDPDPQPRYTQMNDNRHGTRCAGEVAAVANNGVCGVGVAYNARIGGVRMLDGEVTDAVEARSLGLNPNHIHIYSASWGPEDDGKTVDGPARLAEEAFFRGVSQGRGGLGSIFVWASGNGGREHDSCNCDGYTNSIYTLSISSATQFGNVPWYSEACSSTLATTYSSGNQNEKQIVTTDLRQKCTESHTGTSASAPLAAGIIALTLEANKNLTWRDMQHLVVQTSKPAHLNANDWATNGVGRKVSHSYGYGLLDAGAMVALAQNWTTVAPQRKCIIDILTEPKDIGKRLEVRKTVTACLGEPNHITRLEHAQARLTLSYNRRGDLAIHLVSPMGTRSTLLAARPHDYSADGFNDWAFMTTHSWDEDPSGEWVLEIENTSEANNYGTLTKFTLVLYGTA
# Procedure: Reactions were performed in black 384-well polystyrene low volume plates (Greiner). Furin (108-574-Tev-Flag-His) enzyme was expressed and purified from CHO cells. Compounds of the invention were dissolved in DMSO (1.0 mM) and serially diluted 1 to 3 with DMSO through eleven dilutions to provide a final compound concentration range from 0.00017 to 10 μM. 0.05 μL of each concentration was transferred to the corresponding well of an assay plate, and then 5 μL of 40 pM furin enzyme in assay buffer (100 mM HEPES pH7.5, 1 mM CaCl2 and 0.005% Triton X-100) was added using a Multidrop Combi (Thermo) to the compound plates, and mixed by inversion. […] The plates were centrifuged at 500×g for 1 minute and incubated at room temperature for two hours. Enzyme inhibition is then quantified using an Envision instrument (PerkinElmer).
# Data were analyzed using AbaseXE 7.3, utilizing a four-parameter curve fit equation. The following values were used to define limits and/or constraints for each of the four parameters: • Minimum—limit −10 to 10 • Maximum—90 to 110 • Slope—limit 0.5 to 2.0 • pXC50 confidence interval—10
# Raw counts obtained from the respective plate reader (Perkin Elmer) were captured for data analysis. Curves were generated using the equation: Y=A+[(B−A)/(1+(10^C/x)^D)] • where: A=minimum response • B=maximum response • C=log 10*XC50 • D=slope factor • x=log 10 compound concentration [M]
# The results were recorded as pXC50 values (−C in the above equation)
# [2] = target: T2, furin (endogenous protease) in U20S cells (Homo sapiens, UniProt P09958); assay: Furin cell-based assay (image-based, Golgi-targeted GFP with BMP10 furin/PCSK cleavage site); conditions: 24-hour incubation, read-out: furin golgi cell pXC50 (converted);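 note: Read-out is mean GFP fluorescence of Golgi puncta per cell by high-content imaging, retained when furin inhibited, over an eleven-point 0.00017–10 µM series, four-parameter fit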
# T2 construct: the endogenous protease cleaves GFP; endogenous in cells; host or cells: U2OS cells transduced with a BacMam reporter
# T2 sequence (P09958 108-794): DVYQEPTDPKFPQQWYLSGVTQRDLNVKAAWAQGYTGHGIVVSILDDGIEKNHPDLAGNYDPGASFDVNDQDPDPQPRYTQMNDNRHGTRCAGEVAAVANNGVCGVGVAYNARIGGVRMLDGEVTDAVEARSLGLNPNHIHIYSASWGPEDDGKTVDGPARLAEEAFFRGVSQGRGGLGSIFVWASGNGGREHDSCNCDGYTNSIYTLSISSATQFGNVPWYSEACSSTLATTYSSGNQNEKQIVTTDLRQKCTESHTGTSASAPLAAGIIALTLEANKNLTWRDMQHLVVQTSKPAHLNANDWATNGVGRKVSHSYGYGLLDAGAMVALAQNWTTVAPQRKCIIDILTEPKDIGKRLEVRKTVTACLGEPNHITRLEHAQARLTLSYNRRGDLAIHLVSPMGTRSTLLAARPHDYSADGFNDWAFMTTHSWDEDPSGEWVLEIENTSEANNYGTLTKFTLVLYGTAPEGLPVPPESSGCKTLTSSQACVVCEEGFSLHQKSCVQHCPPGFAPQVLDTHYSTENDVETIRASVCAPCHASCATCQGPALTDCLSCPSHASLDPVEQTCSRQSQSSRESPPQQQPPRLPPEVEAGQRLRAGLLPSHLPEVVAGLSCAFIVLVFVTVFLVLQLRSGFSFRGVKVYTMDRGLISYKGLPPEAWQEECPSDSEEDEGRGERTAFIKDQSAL
SMILES,furin enzyme pIC50 [1],EC50 [2] [nM]
"CC(=O)NCC1CCN(Cc2cc(Oc3ccc(N4CCN([C@H]5C[C@@H](NS(C)(=O)=O)C5)CC4)nc3)nc(-c3cc(Cl)cc(Cl)c3)c2)CC1 [Example 27, N-((1-((2-(3,5-Dichlorophenyl)-6-((6-(4-((cis)-3-(methylsulfonamido)cyclobutyl)piperazin-1-yl)pyridin-3-yl)oxy)pyridin-4-yl)methyl)piperidin-4-yl)methyl)acetamide]",9.6,3.16
"CC(=O)NCC1CCN(Cc2cc(Oc3ccc(N4CCN(CCN)CC4)nc3)nc(-c3cc(Cl)cc(Cl)c3)c2)CC1 [Example 28, N-((1-((2-((6-(4-(2-Aminoethyl)piperazin-1-yl)pyridin-3-yl)oxy)-6-(3,5-dichlorophenyl)pyridin-4-yl)methyl)piperidin-4-yl)methyl)acetamide]",9,2
"CC(=O)NCC1CCN(Cc2cc(Oc3ccc(N4CCN(CC(O)CCO)CC4)nc3)nc(-c3cc(Cl)cc(Cl)c3)c2)CC1 (stereo not drawn) [Example 29, N-((1-((2-(3,5-Dichlorophenyl)-6-((6-(4-(2,4-dihydroxybutyl)piperazin-1-yl)pyridin-3-yl)oxy)pyridin-4-yl)methyl)piperidin-4-yl)methyl)acetamide]",9,< 0.794
"CC(=O)NCC1CCN(Cc2cc(Oc3ccc(N4CCN(CCP(=O)(O)O)CC4)nc3)nc(-c3cc(Cl)cc(Cl)c3)c2)CC1 [Example 30, (2-(4-(5-((4-((4-(Acetamidomethyl)piperidin-1-yl)methyl)-6-(3,5-dichlorophenyl)pyridin-2-yl)oxy)pyridin-2-yl)piperazin-1-yl)ethyl)phosphonic acid]",9.1,501
"CC(=O)NCC1CCN(Cc2cc(Oc3ccc(N4CCN(CCOC(N)=O)CC4)nc3)nc(-c3cc(Cl)cc(Cl)c3)c2)CC1 [Example 31, 2-(4-(5-((4-((4-(Acetamidomethyl)piperidin-1-yl)methyl)-6-(3,5-dichlorophenyl)pyridin-2-yl)oxy)pyridin-2-yl)piperazin-1-yl)ethyl carbamate]",9.1,6.31
"CC(=O)NCC1CCN(Cc2cc(Oc3ccc(N4CCN(CCN(C)S(C)(=O)=O)CC4)nc3)nc(-c3cc(Cl)cc(Cl)c3)c2)CC1 [Example 32, N-((1-((2-(3,5-dichlorophenyl)-6-((6-(4-(2-(N-methylmethylsulfonamido)ethyl)piperazin-1-yl)pyridin-3-yl)oxy)pyridin-4-yl)methyl)piperidin-4-yl)methyl)acetamide]",8.7,10
"CC(=O)NCC1CCN(Cc2cc(Oc3ccc(N4CCN(C(=O)CCC(=O)O)CC4)nc3)nc(-c3cc(Cl)cc(Cl)c3)c2)CC1 [Example 33, 4-(4-(5-((4-((4-(Acetamidomethyl)piperidin-1-yl)methyl)-6-(3,5-dichlorophenyl)pyridin-2-yl)oxy)pyridin-2-yl)piperazin-1-yl)-4-oxobutanoic acid]",8.5,39.8
"CC(=O)NCC1CCN(Cc2cc(Oc3ccc(N4CCN(CC5(CO)CC5)CC4)nc3)nc(-c3cc(Cl)cc(Cl)c3)c2)CC1 [Example 34, N-((1-((2-(3,5-Dichlorophenyl)-6-((6-(4-((1-(hydroxymethyl)cyclopropyl)methyl)piperazin-1-yl)pyridin-3-yl)oxy)pyridin-4-yl)methyl)piperidin-4-yl)methyl)acetamide]",9.4,5.01
"CC(=O)NCC1CCN(Cc2cc(Oc3ccc(N4CCN(CC5(O)CC5)CC4)nc3)nc(-c3cc(Cl)cc(Cl)c3)c2)CC1 [Example 35, N-((1-((2-(3,5-Dichlorophenyl)-6-((6-(4-((1-hydroxycyclopropyl)methyl)piperazin-1-yl)pyridin-3-yl)oxy)pyridin-4-yl)methyl)piperidin-4-yl)methyl)acetamide]",8.8,3.16
"CCNC(=O)CC1CCN(Cc2cc(Oc3ccc(N4CCN(CCCS(C)(=O)=O)CC4)nc3)nc(-c3cc(Cl)cc(Cl)c3)c2)CC1 [Example 36, 2-(1-((2-(3,5-Dichlorophenyl)-6-((6-(4-(3-(methylsulfonyl)propyl)piperazin-1-yl)pyridin-3-yl)oxy)pyridin-4-yl)methyl)piperidin-4-yl)-N-ethylacetamide]",9,5.01
"CNCc1cc(Oc2cnc(N3CCN(CCCS(C)(=O)=O)CC3)nc2)nc(-c2cc(Cl)cc(Cl)c2)c1 [Example 37, 1-(2-(3,5-Dichlorophenyl)-6-((2-(4-(3-(methylsulfonyl)propyl)piperazin-1-yl)pyrimidin-5-yl)oxy)pyridin-4-yl)-N-methylmethanamine]",8.5,12.6
"NS(=O)(=O)CC1CCN(Cc2cc(Oc3ccc(N4CCN(CCC(=O)O)CC4)nc3)nc(-c3cc(Cl)cc(Cl)c3)c2)CC1 [Example 38, 3-(4-(5-((6-(3,5-Dichlorophenyl)-4-((4-(sulfamoylmethyl)piperidin-1-yl)methyl)pyridin-2-yl)oxy)pyridin-2-yl)piperazin-1-yl)propanoic acid]",9,126
"CS(=O)(=O)CC1CCN(Cc2cc(Oc3ccc(N4CCN(CCC(=O)O)CC4)nc3)nc(-c3cc(Cl)cc(Cl)c3)c2)CC1 [Example 39, 3-(4-(5-((6-(3,5-Dichlorophenyl)-4-((4-((methylsulfonyl)methyl)piperidin-1-yl)methyl)pyridin-2-yl)oxy)pyridin-2-yl)piperazin-1-yl)propanoic acid]",8.3,79.4
"CNC(=O)NCC1CCN(Cc2cc(Oc3ccc(N4CCN(CCO)CC4)nc3)nc(-c3cc(Cl)cc(Cl)c3)c2)CC1 [Example 40, 1-((1-((2-(3,5-Dichlorophenyl)-6-((6-(4-(2-hydroxyethyl)piperazin-1-yl)pyridin-3-yl)oxy)pyridin-4-yl)methyl)piperidin-4-yl)methyl)-3-methylurea]",7.6,10
"CC(=O)NCC1CCN(Cc2cc(Oc3ccc(N)cc3)cc(-c3cc(Cl)cc(Cl)c3)c2)CC1 [Example 42, N-((1-((5-(4-Aminophenoxy)-3′,5′-dichloro-[1,1′-biphenyl]-3-yl)methyl)piperidin-4-yl)methyl)acetamide]",7.7,316
CS(=O)(=O)NCC1CCN(Cc2cc(Oc3ccc(N4CCN(CCC(=O)O)CC4)nc3)nc(-c3cc(Cl)cc(Cl)c3)c2)CC1 [Example 44],9.5,25.1
"CC(=O)NCC1CCN(Cc2cc(Oc3cnc(N)c(F)c3)cc(-c3cc(Cl)cc(Cl)c3)c2)CC1 [Example 46, N-((1-((5-((6-Amino-5-fluoropyridin-3-yl)oxy)-3′,5′-dichloro-[1,1′-biphenyl]-3-yl)methyl)piperidin-4-yl)methyl)acetamide, 2 hydrochloride]",7,501
"CNC(=O)NCC1CCN(Cc2cc(Oc3cnc(N4CCN(CCO)CC4)nc3)nc(-c3cc(Cl)cc(Cl)c3)c2)CC1 [Example 47, 1-((1-((2-(3,5-Dichlorophenyl)-6-((2-(4-(2-hydroxyethyl)piperazin-1-yl)pyrimidin-5-yl)oxy)pyridin-4-yl)methyl)piperidin-4-yl)methyl)-3-methylurea, 4 hydrochloride]",8.9,3.98
